Experimental data taken from paper PMC10801772 (The Journal of Pharmacology and Experimental Therapeutics, 2024).
Several values for one entry are separate records, joined by “and”; a condition that tells them apart may be missing. Identical values can stand only once. Like-named read-outs stand apart in the source and are kept apart here.

How the values were obtained:
[1] = tested on: mice at terminal stages of botulism (2.2x LD50 BoNT/A, i.v.); settings: mouse, in vivo
[2] = cited from earlier work; for Brain penetration: in vivo
[3] = tested on: mice at terminal stages of botulism (2.2x LD50 BoNT/A, i.v.); settings: mouse, in vivo; remark: listed apart in the source
healthy mice = settings: mouse, in vivo
[4] = mouse, in vivo, sc, 2 mg/kg; cited from earlier work
[5] = tested on: animal models of botulism; settings: in vivo; cited from earlier work
patients with LEMS = settings: human, in vivo; cited from earlier work
[6] = in vivo, po; cited from earlier work

For `Nc1ccnc(N)c1` [2,4-DAP, 2,4-diaminopyridine], the “Relative effects on TV versus RR” value [1] is listed as “increased TV and RR by roughly equal proportions” and the Brain penetration [2] is listed as “poor brain penetration”.
With `Nc1ccnc(F)c1` [2F-4AP, 4-amino-2-fluoropyridine] the “Effects on ventilatory parameters (MV, TV, RR)” value [1] was “indistinguishable from vehicle”.
For `Nc1cncc(N)c1N` [3,4,5-TAP, 3,4,5-triaminopyridine], the “Relative effects on TV versus RR” value [1] is given as “increased TV and RR by roughly equal proportions” and the Brain penetration [2] is given as “poor brain penetration”.
With `Nc1ccncc1N` [3,4-DAP, 3,4-diaminopyridine] the “Effect on ventilatory parameters (TV, RR, MV, mid-expiratory flow, peak inspiratory flow, peak expiratory flow, expired volume, enhanced pause)” value [1] was “significantly improved”, the “Lowest dose to produce an unambiguous peak response in MV” value [1] was 0.25 mg/kg and the “Relative effects on TV versus RR” value [1] was “more potent effects on TV”. For the same compound, the “Time after treatment at which MV significantly improved” value [1] was 10 min, the “Time after treatment to maximum effect on MV” value [1] was 25 to 30 min and the “Time after which ventilatory parameters began to decline” value [1] was “approximately 30 minutes”. For the same compound, the “Time up to which all ventilatory parameters remained significantly improved compared with vehicle” value [1] was 90 min, the “Doses that increased both ventilatory parameters and respiration” value ([1]; sc) was no less than 0.25 mg/kg and the Blood gas levels [3] was “did not improve”. For the same compound, the Lactate [3] was “did not show any significant improvement”, the “Time to improvement in blood gas levels” value [3] was 45 min and < 30 min and the “Time to reversal of respiratory acidosis (pCO2, HCO3-, pH, lactate)” value [3] was no more than 30 minutes. For the same compound, the “pCO2, pH and HCO3-” value [3] was “improved”, the “Effect on pO2 levels” value ([3]; sc) was “Neither intoxication nor 3,4-DAP treatment had an effect on pO2 levels” and the “Effect on MV” value (healthy mice) was “no changes in MV”. For the same compound, the “Effect on RR” value (healthy mice) was “significantly increased RR”, the “Effect on TV” value (healthy mice) was “concomitant reductions in TV” and the Maximum blood levels [4] was 840 ng/mL. The “Exposure required for reversal of botulism symptoms” value [5] was 125 ng/mL and the “Exposure needed for typical patients with LEMS” value (patients with LEMS) was 32 ng/mL.
In the case of `[2H]c1nc([2H])c(N)c(N)c1[2H]` [3,4-DAP-d3, 3,4-diaminopyridine-d3], the “Relative effects on TV versus RR” value [1] is given as “more potent effects on TV” and the “CNS permeability / brain penetration” value ([2]; not told) is given as “low central nervous system (CNS) permeability”.
With `Nc1c(F)cncc1F` [3,5DF-4AP, 4-amino-3,5-difluoropyridine] the “Effects on ventilatory parameters (MV, TV, RR)” value [1] was “indistinguishable from vehicle”.
For `Nc1ccncc1F` [3F-4AP, 4-amino-3-fluoropyridine], the “Relative effects on TV versus RR” value [1] is given as “more potent effects on RR”, the “Symptomatic benefits compared with the other effective aminopyridines” value [1] is given as “modest and short in duration” and the CNS permeability ([2]; not told) is given as “CNS-permeable”.
For `Nc1ccncc1` [4-AP, 4-aminopyridine], the “Relative effects on TV versus RR” value [1] was “increased TV and RR by roughly equal proportions”, the “Effect on MV” value (healthy mice) was “no changes in MV” and the “Effect on RR” value (healthy mice) was “significantly increased RR”. For the same compound, the “Effect on TV” value (healthy mice) was “concomitant reductions in TV” and the “Blood brain barrier permeability relative to 3,4-DAP” value ([2]; not told) was “approximately sixfold greater”.
With `[2H]c1nc([2H])c([2H])c(N)c1[2H]` [4-AP-d4, 4-aminopyridine-d4] the “Relative effects on TV versus RR” value [1] was “increased TV and RR by roughly equal proportions”.
For `Nc1ccncc1N` [amifampridine], the Maximum blood levels [6] is listed as 38.6 ± 9.2 ng/mL.
